Laboratory results reported in patent publication US8841233B2, “Herbicidal compositions comprising 4-amino-3-chloro-5-fluoro-6-(4-chloro-2-fluoro-3-methoxyphenyl) pyridine-2-carboxylic acid or a derivative thereof and 4-hydroxyphenyl-pyruvate dioxygenase (HPPD) inhibitors” (Dow Agrosciences LLC, priority 2012, dated 2014).

Tests used:
[1] = system: ECHCO; assay: Post-emergence foliar-applied weed control, greenhouse (Example I); assay type: in vivo, Echinochloa colona (L.) Link
From the text: (§1) Evaluation of Post-emergence Foliar-Applied Herbicidal Mixtures for Weed Control in Direct Seeded Rice
(§2) Seeds or nutlets of the desired test plant species were planted in a soil matrix prepared by mixing a loam or sandy loam soil (e.g., 28.6 percent silt, 18.8 percent clay, and 52.6 percent sand, with a pH of about 5.8 and an organic matter content of about 1.8 percent) and calcareous grit in an 80 to 20 ratio. The soil matrix was contained in plastic pots with a volume of 1 quart and a surface area of 83.6 square centimeters (cm^2). When required to ensure good germination and healthy plants, a fungicide treatment and/or other chemical or physical treatment was applied. The plants were grown for 8-22 days in a greenhouse with an approximate 14 h photoperiod which was maintained at about 29° C. during the day and 26° C. during the night. Nutrients (Peters Excel® 15-5-15 5-Ca 2-Mg and iron chelate) were applied in the irrigation solution as needed and water was added on a regular basis. Supplemental lighting was provided with overhead metal halide 1000-Watt lamps as necessary. The plants were employed for testing when they reached the first through fourth true leaf stage.
(§3) Treatments consisted of the acid or esters of 4-amino-3-chloro-5-fluoro-6-(4-chloro-2-fluoro-3-methoxy-phenyl)pyridine-2-carboxylic acid (Compound A), each formulated as an SC (suspension concentrate), and various herbicidal components alone and in combination. Forms of Compound A were applied on an acid equivalent basis.
(§4) Other herbicidal components were applied on an active ingredient basis and included 4-hydroxyphenyl pyruvate dioxygenase (HPPD)-inhibiting herbicides mesotrione formulated as Callisto®, sulcotrione formulated as Mikado®, pyrazolynate formulated as Sunbird® 10% GR, and benzobicyclon formulated as Benzobicyclon 3.5%.
(§5) Treatment requirements were calculated based upon the rates being tested, the concentration of active ingredient or acid equivalent in the formulation, and a 12 mL application volume at a rate of 187 L/ha.
(§6) For treatments comprised of formulated compounds, measured amounts of compounds were placed individually in 25 mL glass vials and diluted in a volume of 1.25% (v/v) Agri-Dex® crop oil concentrated to obtain 12× stock solutions. […] Application solutions were prepared by adding an appropriate amount of each stock solution (e.g., 1 mL) and diluted to the appropriate final concentrations with the addition of 10 mL of an aqueous mixture of 1.25% (v/v) crop oil concentrate so that the final spray solutions contained 1.25+/−0.05% (v/v) crop oil concentrate.
(§7) For treatments comprised of formulated and technical compounds, weighed amounts of the technical materials were placed individually in 25 mL glass vials and dissolved in a volume of 97:3 v/v acetone/DMSO to obtain 12× stock solutions, and measured amounts of the formulated compounds were placed individually in 25 mL glass vials and diluted in a volume of 1.5% (v/v) crop oil concentrate or water to obtain 12× stock solutions. […] Application solutions were prepared by adding an appropriate amount of each stock solution (e.g., 1 mL) and diluted to the appropriate final concentrations with the addition of an appropriate amount of an aqueous mixture of 1.5% (v/v) crop oil concentrate so that the final spray solutions contained 1.25% (v/v) crop oil concentrate. As required, additional water and/or 97:3 v/v acetone/DMSO was added to individual application solutions so that the final acetone and DMSO concentrations of the application solutions being compared were 8.1% and 0.25%, respectively.
(§8) All stock solutions and applications solutions were visually inspected for compound compatibility prior to application. Spray solutions were applied to the plant material with an overhead Mandel track sprayer equipped with a 8002E nozzles calibrated to deliver 187 L/ha over an application area of 0.503 m^2 at a spray height of 18 to 20 inches (46 to 50 cm) above average plant canopy height. […]

[2] = system: IPOHE; assay: as above; assay type: in vivo, Ipomoea hederacea Jacq.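 For Visual Weed Control (%) - 20 DAA IPOHE Obs: visual score 0 no injury to 100 complete kill versus untreated plants.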
From the text: as §1, §2, §3, §4, §5, §6, §7, §8

Row | Structure (SMILES) | Visual Weed Control (%) - 20 DAA ECHCO Obs ([1]; 4.38 gae/ha) [%] | Visual Weed Control (%) - 22 DAA ECHCO Obs ([1]; 5.3 gae/ha) [%] | Visual Weed Control (%) - 20 DAA ECHCO Obs ([1]; 8.75 gae/ha) [%] | Visual Weed Control (%) - 22 DAA ECHCO Obs ([1]; 10.6 gae/ha) [%] | Visual Weed Control (%) - 20 DAA ECHCO Obs ([1]; 17.5 gae/ha) [%] | Visual Control (%) - 20 DAA IPOHE Obs ([2]; 4.38 gae/ha) [%] | Visual Control (%) - 20 DAA IPOHE Obs ([2]; 8.75 gae/ha) [%] | Visual Control (%) - 20 DAA IPOHE Obs ([2]; 17.5 gae/ha) [%] | Visual Weed Control (%) - 21 DAA IPOHE Obs ([2]; 17.5 gae/ha) [%] | Visual Weed Control (%) - 21 DAA IPOHE Obs ([2]; 35 gae/ha) [%] | Visual Weed Control (%) - 22 DAA ECHCO Obs ([1]; 4.38 gae/ha) [%] | Visual Weed Control (%) - 22 DAA ECHCO Obs ([1]; 8.75 gae/ha) [%] | Visual Weed Control (%) - 20 DAA IPOHE Obs ([2]; 4.38 gae/ha) [%] | Visual Weed Control (%) - 20 DAA IPOHE Obs ([2]; 8.75 gae/ha) [%] | Visual Weed Control (%) - 20 DAA IPOHE Obs ([2]; 17.5 gae/ha) [%]
1 | COc1c(Cl)ccc(-c2nc(C(=O)O)c(Cl)c(N)c2F)c1F [Compound A Acid, 4-amino-3-chloro-6-(4-chloro-2-fluoro-3-methoxyphenyl)-5-fluoropyridine-2-carboxylic acid] | 40 | 65 | 60 | 65 | 85 | 10 | 35 | 40 | 25 | 48 | – | – | – | – | –
2 | COc1c(Cl)ccc(-c2nc(C(=O)OCc3ccccc3)c(Cl)c(N)c2F)c1F [Compound A Benzyl Ester, benzyl ester of 4-amino-3-chloro-5-fluoro-6-(4-chloro-2-fluoro-3-methoxy-phenyl)pyridine-2-carboxylic acid] | 40 | – | – | – | – | – | – | – | – | – | 30 | 55 | 10 | 10 | 20
